# Reference: the supplement of paper PMC10307832
# Legend:
# Assay in all cases: relative viability (nuclei count vs DMSO), 5 days (fraction); higher = more cells survive
# BX 795 + Alpelisib = compound: O=C(NCCCNc1nc(Nc2cccc(NC(=O)N3CCCC3)c2)ncc1I)c1cccs1 [BX 795] + Cc1nc(NC(=O)N2CCC[C@H]2C(N)=O)sc1-c1ccnc(C(C)(C)C(F)(F)F)c1 [Alpelisib] (partner 2 µM)
# Method in brief: (§1)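 Five library-drug doses in √10 steps were combined with a fixed anchor-drug dose, or a single drug was given alone, by pin tool to lung cancer cell lines in 1536-well plates the day after seeding. Nuclei were stained and counted after 5 days. Relative viability is the nuclei count in treated wells over that in vehicle wells, taken as the median of duplicate plates.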
# BX 795 + Foretinib = compound: O=C(NCCCNc1nc(Nc2cccc(NC(=O)N3CCCC3)c2)ncc1I)c1cccs1 [BX 795] + COc1cc2c(Oc3ccc(NC(=O)C4(C(=O)Nc5ccc(F)cc5)CC4)cc3F)ccnc2cc1OCCCN1CCOCC1 [Foretinib] (partner 0.25 µM)
# Method in brief: as §1
# BX 795 + Navitoclax = compound: O=C(NCCCNc1nc(Nc2cccc(NC(=O)N3CCCC3)c2)ncc1I)c1cccs1 [BX 795] + CC1(C)CCC(c2ccc(Cl)cc2)=C(CN2CCN(c3ccc(C(=O)NS(=O)(=O)c4ccc(N[C@H](CCN5CCOCC5)CSc5ccccc5)c(S(=O)(=O)C(F)(F)F)c4)cc3)CC2)C1 [Navitoclax] (partner 0.5 µM)
# Method in brief: as §1
# BX 795 + OSI-027 = compound: O=C(NCCCNc1nc(Nc2cccc(NC(=O)N3CCCC3)c2)ncc1I)c1cccs1 [BX 795] + COc1cccc2cc(-c3nc([C@H]4CC[C@H](C(=O)O)CC4)n4ncnc(N)c34)[nH]c12 [OSI-027] (partner 0.5 µM)
# Method in brief: as §1
# BX 795 + Olaparib = compound: O=C(NCCCNc1nc(Nc2cccc(NC(=O)N3CCCC3)c2)ncc1I)c1cccs1 [BX 795] + O=C(c1cc(Cc2n[nH]c(=O)c3ccccc23)ccc1F)N1CCN(C(=O)C2CC2)CC1 [Olaparib] (partner 8 µM)
# Method in brief: as §1
Cell Line,relative viability (BX 795 + Alpelisib; first compound 0.04 µM),relative viability (BX 795 + Alpelisib; first compound 0.1265 µM),relative viability (BX 795 + Alpelisib; first compound 0.4 µM),relative viability (BX 795 + Alpelisib; first compound 1.265 µM),relative viability (BX 795 + Foretinib; first compound 0.04 µM),relative viability (BX 795 + Foretinib; first compound 0.1265 µM),relative viability (BX 795 + Foretinib; first compound 0.4 µM),relative viability (BX 795 + Foretinib; first compound 1.265 µM),relative viability (BX 795 + Navitoclax; first compound 0.04 µM),relative viability (BX 795 + Navitoclax; first compound 0.1265 µM),relative viability (BX 795 + Navitoclax; first compound 0.4 µM),relative viability (BX 795 + Navitoclax; first compound 1.265 µM),relative viability (BX 795 + OSI-027; first compound 0.04 µM),relative viability (BX 795 + OSI-027; first compound 0.1265 µM),relative viability (BX 795 + OSI-027; first compound 0.4 µM),relative viability (BX 795 + OSI-027; first compound 1.265 µM),relative viability (BX 795 + Olaparib; first compound 0.04 µM),relative viability (BX 795 + Olaparib; first compound 0.1265 µM),relative viability (BX 795 + Olaparib; first compound 0.4 µM),relative viability (BX 795 + Olaparib; first compound 1.265 µM)
COR-L 105,1.08,0.84,0.745,0.412,1.29,0.962,0.861,0.662,0.795,0.583,0.652,0.39,0.659,0.665,0.582,0.466,0.705,0.491,0.644,0.562
EKVX,0.841,0.933,0.808,0.837,0.496,0.893,0.516,0.726,0.703,1.02,0.851,0.896,0.657,0.649,0.63,0.603,0.833,0.783,0.666,0.807
EMC-BAC-2,0.766,0.795,0.715,0.464,1.01,1.12,0.914,0.322,1.18,1.24,1.24,0.906,0.413,0.404,0.377,0.273,0.563,0.369,0.494,0.323
EPLC-272H,1,,0.905,0.93,0.739,0.721,0.653,0.527,1.14,,1.27,1.12,0.297,0.291,0.304,0.336,0.932,0.681,0.352,0.325
H3255,0.873,0.845,0.759,0.584,0.965,0.764,1.02,0.848,0.663,0.484,0.694,0.527,0.581,0.605,0.629,0.51,0.624,0.608,0.501,0.492
HARA,0.752,0.82,1.2,0.605,0.914,0.935,0.849,0.31,1.13,1.13,1.24,1.13,0.598,0.494,0.701,0.41,0.436,0.328,0.549,0.766
HCC-15,0.865,0.877,0.959,0.665,0.973,1.04,0.925,0.915,0.751,0.7,0.756,0.53,0.627,0.755,0.717,0.474,0.857,0.73,1.04,0.499
HCC-78,0.406,0.337,0.39,0.303,0.665,0.537,0.596,0.5,0.857,0.926,0.792,0.718,0.363,0.369,0.393,0.363,1.1,0.811,0.882,0.605
HCC-366,0.462,0.432,0.291,0.113,0.973,0.959,0.94,0.235,0.865,0.977,0.74,0.823,1.08,0.881,0.644,0.444,0.336,0.404,0.175,0.252
HCC-827,1.02,0.975,1.02,0.924,1.18,1.12,1.09,1.04,1.1,0.974,1.05,0.908,0.839,0.81,0.933,0.763,0.448,0.621,0.525,0.639
HOP-62,0.901,0.643,1.24,1,1.04,0.967,1.37,0.923,1.09,1.24,1.21,1.07,0.833,0.917,0.84,0.768,0.419,0.265,0.266,0.605
LC-2-ad,0.959,0.89,0.654,0.268,1.12,0.867,0.981,0.808,0.503,0.448,0.467,0.213,0.841,0.767,0.867,0.658,0.756,0.456,0.685,0.608
LCLC-97TM1,0.236,0.229,0.393,0.155,0.912,0.913,0.862,0.567,0.398,0.45,0.529,0.432,0.462,0.604,0.673,0.332,0.507,0.404,0.409,0.266
LK-2,1.1,1.07,0.952,1.03,0.937,1.51,1.31,1.1,0.873,0.876,0.787,0.608,0.248,0.194,0.186,0.2,0.769,0.883,0.739,0.641
LOU-NH91,0.695,0.666,0.621,0.741,0.936,0.922,0.934,0.979,0.686,0.735,0.594,0.686,0.794,0.75,0.735,0.724,0.9,0.918,0.754,0.902
LU99A,0.541,0.445,0.482,0.222,0.808,0.901,0.793,0.602,1.03,0.755,0.821,0.498,0.306,0.296,0.287,0.257,0.211,0.264,0.17,0.222
